Source: article PMC9582717 (The Journal of Biological Chemistry, 2022)

Biological target: T1, SmChiP (chitoporin) (Serratia marcescens, UniProt I7GPX7)
T1 sequence (I7GPX7 28-467): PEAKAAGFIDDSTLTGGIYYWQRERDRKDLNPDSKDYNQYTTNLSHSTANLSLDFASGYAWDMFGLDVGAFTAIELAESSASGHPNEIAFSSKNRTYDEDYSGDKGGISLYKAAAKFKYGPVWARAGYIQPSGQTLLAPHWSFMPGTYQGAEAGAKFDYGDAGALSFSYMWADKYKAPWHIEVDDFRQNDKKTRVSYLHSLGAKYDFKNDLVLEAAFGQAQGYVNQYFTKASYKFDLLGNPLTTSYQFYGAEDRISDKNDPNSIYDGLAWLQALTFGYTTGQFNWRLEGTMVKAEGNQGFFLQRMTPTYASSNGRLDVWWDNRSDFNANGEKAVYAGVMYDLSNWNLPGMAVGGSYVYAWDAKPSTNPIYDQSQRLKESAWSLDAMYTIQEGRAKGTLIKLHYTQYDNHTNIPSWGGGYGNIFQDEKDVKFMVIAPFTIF
Assay: isothermal titration calorimetry
Settings: detergent-solubilized protein; one-site binding model

Kd [µM]	Structure (SMILES)
23 ± 2	CC(=O)N[C@H]1[C@H](O[C@H]2[C@H](O)[C@@H](NC(C)=O)[C@H](O[C@H]3[C@H](O)[C@@H](NC(C)=O)C(O)O[C@@H]3CO)O[C@@H]2CO)O[C@H](CO)[C@@H](O[C@@H]2O[C@H](CO)[C@@H](O[C@@H]3O[C@H](CO)[C@@H](O)[C@H](O)[C@H]3NC(C)=O)[C@H](O)[C@H]2NC(C)=O)[C@@H]1O (some centres unmarked) [chitopentaose]
17 ± 0.6	CC(=O)N[C@H]1[C@H](O[C@H]2[C@H](O)[C@@H](NC(C)=O)[C@H](O[C@H]3[C@H](O)[C@@H](NC(C)=O)C(O)O[C@@H]3CO)O[C@@H]2CO)O[C@H](CO)[C@@H](O[C@@H]2O[C@H](CO)[C@@H](O[C@@H]3O[C@H](CO)[C@@H](O[C@@H]4O[C@H](CO)[C@@H](O)[C@H](O)[C@H]4NC(C)=O)[C@H](O)[C@H]3NC(C)=O)[C@H](O)[C@H]2NC(C)=O)[C@@H]1O (some centres unmarked) [chitohexaose]
